US20230263822A1, “MODULATION OF FACTOR 11 EXPRESSION” (Ionis Pharmaceuticals, Inc., priority 2008, published 2023)
Strand notation (5' to 3'): a small letter for the sugar, then the base; units joined by * are phosphorothioate-linked, units joined directly phosphodiester-linked; [ ] holds rarer units or linkages, { } end groups; capitals alone tell only the bases. e = 2'-O-(2-methoxyethyl) (MOE); [5mC] = 5-methylcytosine; d = 2'-deoxy (DNA)

Tests used:
[1] = Tolerability in Sprague-Dawley rats: kidney function (Example 44); format: in vivo; conditions: 50 mg/kg s.c. twice per week for 6 weeks; for BUN / Creatinine: plasma
[2] = system: Factor 11 mRNA; assay: Factor 11 mRNA in cynomolgus monkey liver, day 85 (Example 45); format: in vivo; conditions: cynomolgus monkeys, s.c. escalating doses 5-25 mg/kg over 12 weeks
Experimental: (§1) Groups, each consisting of two male and three female monkeys, were injected subcutaneously with ISIS 416838, ISIS 416850, ISIS 416858, ISIS 416864, or ISIS 417002 in escalating doses. Antisense oligonucleotide was administered to the monkeys at 5 mg/kg three times per a week for week 1; 5 mg/kg twice per week for weeks 2 and 3; 10 mg/kg three times per week for week 4; 10 mg/kg twice per week for weeks 5 and 6; 25 mg/kg three times per week for week 7; and 25 mg/kg twice per week for weeks 8, 9, 10, 11, and 12. One control group, consisting of two male and three female monkeys, was injected subcutaneously with PBS according to the same dosing regimen. An additional experimental group, consisting of two male and three female monkeys, was injected subcutaneously with ISIS 416850 in a chronic, lower dose regimen. Antisense oligonucleotide was administered to the monkeys at 5 mg/kg three times per week for week 1; 5 mg/kg twice per week for week 2 and 3; 10 mg/kg three times per week for week 4; and 10 mg/kg twice per week for weeks 5 to 12. Body weights were measured weekly. Blood samples were collected 14 days and 5 days before the start of treatment and subsequently once per week for Factor 11 protein activity analysis in plasma, fibrinogen measurement, PT and aPTT measurements, bleeding times, and measurement of various hematologic factors. On day 85, the monkeys were euthanized by exsanguination while under deep anesthesia, and organs harvested for further analysis.
On day 85, RNA was extracted from liver tissue for real-time PCR analysis of Factor 11 using primer probe set LTS00301 (forward primer sequence […], designated herein as SEQ ID NO 271; reverse primer sequence […], designated herein as SEQ ID NO: 272; and probe sequence TGCAGGCACAGCATCCCAGTGTTCTX, designated herein as SEQ ID NO. 273). Results are presented as percent inhibition of Factor 11, relative to PBS control.

[3] = system: human Factor 11 mRNA; assay: Dose-dependent inhibition of human Factor 11 in HepG2 cells, electroporation 375-12,000 nM (Example 32); format: cell-based; conditions: for Percent inhibition of Factor 11 mRNA at 375 nM / Percent inhibition of Factor 11 mRNA at 750 nM / IC50: electroporation; for Percent inhibition of Factor 11 mRNA at 375 nM / Percent inhibition of Factor 11 mRNA at 750 nM / Percent inhibition of Factor 11 mRNA at 1,500 nM / Percent inhibition of Factor 11 mRNA at 3,000 nM / Percent inhibition of Factor 11 mRNA at 6,000 nM / Percent inhibition of Factor 11 mRNA at 12,000 nM: approx. 16 hours, relative to untreated control cells; for Percent inhibition of Factor 11 mRNA at 1,500 nM: electroporation, 1,500 nM; for Percent inhibition of Factor 11 mRNA at 3,000 nM: electroporation, 3,000 nM; for Percent inhibition of Factor 11 mRNA at 6,000 nM: electroporation, 6,000 nM; for Percent inhibition of Factor 11 mRNA at 12,000 nM: electroporation, 12,000 nM; for IC50: Factor 11 mRNA expression
Experimental: These gapmers were tested at various doses in HepG2 cells. Cells were plated at a density of 20,000 cells per well and transfected using electroporation with 375 nM, 750 nM, 1,500 nM, 3,000 nM, 6,000 nM and 12,000 nM concentrations of antisense oligonucleotide, as specified in Table 47. After a treatment period of approximately 16 hours, RNA was isolated from the cells and Factor 11 mRNA levels were measured by quantitative real-time PCR. Human Factor 11 primer probe set RTS 2966 was used to measure mRNA levels. Factor 11 mRNA levels were adjusted according to total RNA content, as measured by RIBOGREEN. Results are presented as percent inhibition of Factor 11, relative to untreated control cells.
ISIS 416850, ISIS 416858, ISIS 445522, and ISIS 445531 (see Table 45 above) were re-tested in vitro along with the microwalk gapmers under the same conditions described above.
The first two listed gapmers in Table 47 are the original gapmers (ISIS 416850 and ISIS 416858) from which the remaining gapmers were designed via microwalk and are designated by an asterisk.

[4] = Tolerability in Sprague-Dawley rats: hematology assays (Example 35); conditions: 50 mg/kg s.c. twice per week for 6 weeks; for HCT / MCH / MCHC / MCV: title says % control
Experimental: A control group of four Sprague Dawley rats was injected subcutaneously with PBS twice per week for 6 weeks. Body weight measurements were taken before and throughout the treatment period. Urine samples were taken before the start of treatment. Three days after the last dose, urine samples were taken and the rats were sacrificed. Organ weights were measured and blood was collected for further analysis.
Blood obtained from all rat groups were sent to Antech Diagnostics for hematocrit (HCT), mean corpuscular volume (MCV), mean corpuscular hemoglobin (MCV), and mean corpuscular hemoglobin concentration (MCHC) measurements and analyses, as well as measurements of various blood cells, such as WBC (neutrophils, lymphocytes and monocytes), RBC, and platelets as well as hemoglobin content.

[5] = Liver function, ALT, AST, bilirubin in cynomolgus monkeys (Example 45); format: in vivo; conditions: plasma, escalating dose regimen
Experimental: as §1
The ISIS oligonucleotide, ISIS 416850, given with the chronic dose regimen is distinguished from the other oligonucleotides with an asterisk (*).

[6] = mouse, in vivo
Experimental: A control group of five mice was injected subcutaneously with PBS for 2 weeks. All experimental groups (i.e. ASO treated mice at 2, 4, 6 weeks) were compared to the control group (i.e. PBS, 2 weeks).
Blood obtained from all mice groups were sent to Antech Diagnostics for hematocrit (HCT), mean corpuscular volume (MCV), mean corpuscular hemoglobin (MCH), and mean corpuscular hemoglobin concentration (MCHC) measurements and analyses, as well as measurements of the various blood cells, such as WBC (neutrophils, lymphocytes, and monocytes), RBC, and platelets, and total hemoglobin content.

Substance: ISIS 449709: 3-8-3, 4-8-4, 2-10-2, 3-10-3 or 4-10-4 MOE microwalk gapmer (Table 46) (antisense eG*e[5mC]*eA*e[5mC]*dA*dG*dT*dT*dT*d[5mC]*dT*dG*dG*d[5mC]*eA*eG*eG*e[5mC])
- BUN [1]: 24 mg/dL
- Creatinine [1]: 0.4 mg/dL
- Urine protein/creatinine ratio [1]: 3.4

Substance: ISIS 449708: 3-8-3, 4-8-4, 2-10-2, 3-10-3 or 4-10-4 MOE microwalk gapmer (Table 46) (antisense eA*e[5mC]*eA*dG*dT*dT*dT*d[5mC]*dT*dG*dG*e[5mC]*eA*eG)
- BUN [1]: 24 mg/dL
- Creatinine [1]: 0.4 mg/dL
- Urine protein/creatinine ratio [1]: 5.7

Substance: 416864 (antisense GGCAGCGGACGGCATTGGTG; 5-10-5 gapmer, further chemistry not given here) [compound 416864]
- % inhibition of Factor 11 mRNA in the cynomolgus monkey liver relative to the PBS control [2]: 44%

Substance: ISIS 449710: 3-8-3, 4-8-4, 2-10-2, 3-10-3 or 4-10-4 MOE microwalk gapmer (Table 46) (antisense e[5mC]*eA*e[5mC]*dA*dG*dT*dT*dT*d[5mC]*dT*dG*dG*d[5mC]*eA*eG*eG)
- BUN [1]: 29 mg/dL
- Creatinine [1]: 0.3 mg/dL
- Urine protein/creatinine ratio [1]: 5.9

Substance: 445522 (antisense eG*e[5mC]*eA*e[5mC]*eA*dG*dT*dT*dT*d[5mC]*dT*dG*dG*e[5mC]*eA*eG*eG*e[5mC]) [compound 445522]
- Percent inhibition of Factor 11 mRNA at 375 nM [3]: 59%
- Percent inhibition of Factor 11 mRNA at 750 nM [3]: 71%
- Percent inhibition of Factor 11 mRNA at 1,500 nM [3]: 83%
- Percent inhibition of Factor 11 mRNA at 3,000 nM [3]: 82%
- Percent inhibition of Factor 11 mRNA at 6,000 nM [3]: 81%
- Percent inhibition of Factor 11 mRNA at 12,000 nM [3]: 92%

Substance: ISIS 449711: 3-8-3, 4-8-4, 2-10-2, 3-10-3 or 4-10-4 MOE microwalk gapmer (Table 46) (antisense eA*e[5mC]*dA*dG*dT*dT*dT*d[5mC]*dT*dG*dG*d[5mC]*eA*eG)
- BUN [1]: 28 mg/dL
- Creatinine [1]: 0.4 mg/dL
- Urine protein/creatinine ratio [1]: 7.3

Substance: 445531 (antisense eG*eG*e[5mC]*eA*eT*dT*dG*dG*dT*dG*d[5mC]*dA*d[5mC]*eA*eG*eT*eT*eT) [compound 445531]
- Percent inhibition of Factor 11 mRNA at 375 nM [3]: 44%
- Percent inhibition of Factor 11 mRNA at 750 nM [3]: 64%
- Percent inhibition of Factor 11 mRNA at 1,500 nM [3]: 78%
- Percent inhibition of Factor 11 mRNA at 3,000 nM [3]: 86%
- Percent inhibition of Factor 11 mRNA at 6,000 nM [3]: 91%
- Percent inhibition of Factor 11 mRNA at 12,000 nM [3]: 93%
- IC50 [3]: 0.44 µM

Substance: 416858 (antisense ACGGCATTGGTGCACAGTTT; 5-10-5 gapmer, further chemistry not given here) [compound 416858]
- Percent inhibition of Factor 11 mRNA at 375 nM [3]: 31%
- Percent inhibition of Factor 11 mRNA at 750 nM [3]: 35%
- Percent inhibition of Factor 11 mRNA at 1,500 nM [3]: 78%
- Percent inhibition of Factor 11 mRNA at 3,000 nM [3]: 85%
- Percent inhibition of Factor 11 mRNA at 6,000 nM [3]: 90%
- Percent inhibition of Factor 11 mRNA at 12,000 nM [3]: 93%
- IC50 [3]: 0.83 µM
- % inhibition of Factor 11 mRNA in the cynomolgus monkey liver relative to the PBS control [2]: 90%

Substance: 416850 (antisense TGCACAGTTTCTGGCAGGCC; 5-10-5 gapmer, further chemistry not given here) [compound 416850]
- Percent inhibition of Factor 11 mRNA at 375 nM [3]: 40%
- Percent inhibition of Factor 11 mRNA at 750 nM [3]: 59%
- Percent inhibition of Factor 11 mRNA at 1,500 nM [3]: 69%
- Percent inhibition of Factor 11 mRNA at 3,000 nM [3]: 87%
- Percent inhibition of Factor 11 mRNA at 6,000 nM [3]: 90%
- Percent inhibition of Factor 11 mRNA at 12,000 nM [3]: 95%
- IC50 [3]: 0.56 µM
- % inhibition of Factor 11 mRNA in the cynomolgus monkey liver relative to the PBS control [2]: 84%

Substance: ISIS 449707: 3-8-3, 4-8-4, 2-10-2, 3-10-3 or 4-10-4 MOE microwalk gapmer (Table 46) (antisense e[5mC]*eA*e[5mC]*eA*dG*dT*dT*dT*d[5mC]*dT*dG*dG*e[5mC]*eA*eG*eG)
- BUN [1]: 24 mg/dL
- Creatinine [1]: 0.4 mg/dL
- Urine protein/creatinine ratio [1]: 3.2

Substance: ISIS 417002: MOE gapmer, nucleobases 1275 to 1318 of SEQ ID NO: 1 (Table 8) (antisense GGTGCACAGTTTCTGGCAGG; MOE gapmer, wing and gap sizes not given here)
- Platelets [4]: 7 10^3/μL
- RBC [4]: 5
- WBC [4]: 23 nL⁻¹
- lymphocytes [4]: 4%
- monocytes [4]: 25%
- neutrophils [4]: 22%
- HCT [4]: 7%
- MCH [4]: 3
- MCHC [4]: 5%
- MCV [4]: 7
- ALT ([5]; day 22): 36 IU/L
- AST ([5]; day 22): 44 IU/L
- Bilirubin ([5]; day 22): 0.20 mg/dL
- ALT ([5]; day 43): 35 IU/L
- AST ([5]; day 43): 42 IU/L
- Bilirubin ([5]; day 43): 0.21 mg/dL
- ALT ([5]; day 64): 42 IU/L
- AST ([5]; day 64): 37 IU/L
- Bilirubin ([5]; day 64): 0.14 mg/dL
- ALT ([5]; day 85): 116 IU/L
- AST ([5]; day 85): 50 IU/L
- Bilirubin ([5]; day 85): 0.12 mg/dL
- ALT ([5]; day −14): 61 IU/L
- AST ([5]; day −14): 114 IU/L
- Bilirubin ([5]; day −14): 0.26 mg/dL

Substance: 416838 (antisense GCAACCGGGATGATGAGTGC; 5-10-5 gapmer, further chemistry not given here) [compound 416838]
- % inhibition of Factor 11 mRNA in the cynomolgus monkey liver relative to the PBS control [2]: 37%

Substance: 417002 (antisense GGTGCACAGTTTCTGGCAGG; 2-13-5 gapmer chemistry, further chemistry not given here) [compound 417002]
- % inhibition of Factor 11 mRNA in the cynomolgus monkey liver relative to the PBS control [2]: 57%

Substance: ISIS 416838: MOE gapmer, nucleobases 1018 to 1042 of SEQ ID NO: 1 (Table 6) (antisense GCAACCGGGATGATGAGTGC; MOE gapmer, wing and gap sizes not given here)
- Platelets [4]: 27 10^3/μL
- RBC [4]: 4
- WBC [4]: 13 nL⁻¹
- lymphocytes [4]: 3%
- monocytes [4]: 6%
- neutrophils [4]: 17%
- HCT [4]: 5%
- MCH [4]: 2
- MCHC [4]: 5%
- MCV [4]: 4
- RBC count [6]: 8 cells/pL
- ALT ([5]; day 22): 36 IU/L
- AST ([5]; day 22): 39 IU/L
- Bilirubin ([5]; day 22): 0.17 mg/dL
- ALT ([5]; day 43): 35 IU/L
- AST ([5]; day 43): 32 IU/L
- Bilirubin ([5]; day 43): 0.17 mg/dL
- ALT ([5]; day 64): 40 IU/L
- AST ([5]; day 64): 33 IU/L
- Bilirubin ([5]; day 64): 0.15 mg/dL
- ALT ([5]; day 85): 41 IU/L
- AST ([5]; day 85): 30 IU/L
- Bilirubin ([5]; day 85): 0.13 mg/dL
- ALT ([5]; day −14): 76 IU/L
- AST ([5]; day −14): 139 IU/L
- Bilirubin ([5]; day −14): 0.26 mg/dL
